Assay results published in the NIST ThermoML archive (doi:10.1021/je201102x).
± gives the expanded uncertainty stated by the source.

Experiments:
[1] = 101.33 kPa, Liquid, Vibrating tube method
[2] = refractive index (Na D-line) (dimensionless); details: 293.15 K; 101.33 kPa; Liquid; Standard Abbe refractometry

Compound	mass density ([1]; 293.15 K) [kg/m3]	mass density ([1]; 298.15 K) [kg/m3]	mass density ([1]; 303.15 K) [kg/m3]	mass density ([1]; 313.15 K) [kg/m3]	mass density ([1]; 323.15 K) [kg/m3]	mass density ([1]; 333.15 K) [kg/m3]	refractive index [2]
CCC(C)O (stereo not given) [butan-2-ol]	806.75 ± 0.24	802.62 ± 0.24	798.43 ± 0.24	789.75 ± 0.24	780.65 ± 0.24	771.1 ± 0.24	1.3943 ± 0.0008
CC(C)CO [2-methyl-1-propanol]	801.99 ± 0.24	798.13 ± 0.24	794.24 ± 0.24	786.28 ± 0.24	778.09 ± 0.24	769.6 ± 0.24	1.3929 ± 0.0008
CCC(=O)O [propanoic acid]	993.56 ± 0.09	988.15 ± 0.1	982.75 ± 0.1	971.96 ± 0.1	961.16 ± 0.11	950.35 ± 0.11	1.3835 ± 0.0008
CCC(C)(C)O [2-methylbutan-2-ol]	808.98 ± 0.14	804.39 ± 0.15	799.75 ± 0.15	790.27 ± 0.15	780.46 ± 0.16	770.27 ± 0.16	1.4016 ± 0.0008
CC(=O)O [acetic acid]	1049.31 ± 0.08	1043.65 ± 0.08	1037.99 ± 0.07	1026.68 ± 0.07	1015.36 ± 0.07	1004.01 ± 0.07	1.3687 ± 0.0008
